Laboratory results as given in ChEMBL document CHEMBL3044763, “Inhibitory Activities of Rhodanine Derivatives on Plant Growth” (Biosci Biotechnol Biochem, 1996).

What was measured:
[1] = test system: Brassica rapa subsp. oleifera; test: Growth inhibition of Brassica rapa subsp. oleifera assessed as chlorophyll b level at 3 x 10^-4 M after 7 days; assay type: functional; design: scale not given: the % may be the effect or the level left
[2] = Toxicity in Mus musculus ddY (mouse) assessed as mortality at 3 mg/kg, ip after 7 days; assay type: organism-based; design: dose 3 mg/kg, route intraperitoneal; conditions: in vivo
[3] = Toxicity in Mus musculus ddY (mouse) assessed as mortality at 7 mg/kg, ip after 7 days; assay type: organism-based; design: dose 7 mg/kg, route intraperitoneal; conditions: in vivo
[4] = test system: Brassica rapa subsp. oleifera; test: Growth inhibition of Brassica rapa subsp. oleifera assessed as total chlorophyll level at 1 x 10^-4 M after 7 days; assay type: functional; design: scale not given: the % may be the effect or the level left
Allium tuberosum [5] = test: Growth inhibition of Allium tuberosum assessed as root growth at 3 x 10^-5 M after 10 days; assay type: functional
Allium tuberosum [6] = test: Growth inhibition of Allium tuberosum assessed as root growth at 3 x 10^-4 M after 10 days; assay type: functional
Echinochloa esculenta = test: Growth inhibition of Echinochloa esculenta assessed as root growth at 3 x 10^-4 M after 7 days; assay type: functional
[7] = test system: Brassica rapa subsp. oleifera; test: Growth inhibition of Brassica rapa subsp. oleifera assessed as root growth at 5 x 10^-5 M after 7 days; assay type: functional
[8] = test system: Brassica rapa subsp. oleifera; test: Growth inhibition of Brassica rapa subsp. oleifera assessed as root growth at 1 x 10^-4 M after 7 days; assay type: functional
Lactuca sativa [9] = test: Growth inhibition of Lactuca sativa (lettuce) assessed as root growth at 3 x 10^-5 M after 7 days; assay type: functional
Lactuca sativa [10] = test: Growth inhibition of Lactuca sativa (lettuce) assessed as root growth at 1 x 10^-4 M after 7 days; assay type: functional
Daucus carota = test: Growth inhibition of Daucus carota (carrot) assessed as root growth at 5 x 10^-5 M after 7 days; assay type: functional
Sesamum indicum = test: Growth inhibition of Sesamum indicum (sesame) assessed as root growth at 1 x 10^-5 M after 7 days; assay type: functional
[11] = Toxicity in Mus musculus ddY (mouse) assessed as mortality at 5 mg/kg, ip after 3 days; assay type: organism-based; design: dose 5 mg/kg, route intraperitoneal; conditions: in vivo
[12] = Toxicity in Mus musculus ddY (mouse) assessed as mortality at 3 mg/kg, ip after 2 days; assay type: organism-based; design: dose 3 mg/kg, route intraperitoneal; conditions: in vivo
[13] = Toxicity in Mus musculus ddY (mouse) assessed as mortality at 4 mg/kg, ip after 2 days; assay type: organism-based; design: dose 4 mg/kg, route intraperitoneal; conditions: in vivo
[14] = Toxicity in Mus musculus ddY (mouse) assessed as mortality at 4 mg/kg, ip after 1 day; assay type: organism-based; design: dose 4 mg/kg, route intraperitoneal; conditions: in vivo
[15] = Toxicity in Mus musculus ddY (mouse) assessed as mortality at 8 mg/kg, ip after 1 day; assay type: organism-based; design: dose 8 mg/kg, route intraperitoneal; conditions: in vivo
[16] = test system: Brassica rapa subsp. oleifera; test: Growth inhibition of Brassica rapa subsp. oleifera assessed as chlorophyll a level at 1 x 10^-4 M after 7 days; assay type: functional; design: scale not given: the % may be the effect or the level left
[17] = Toxicity in Mus musculus ddY (mouse) assessed as mortality at 4 mg/kg, ip after 4 days; assay type: organism-based; design: dose 4 mg/kg, route intraperitoneal; conditions: in vivo
[18] = Toxicity in Mus musculus ddY (mouse) assessed as mortality at 8 mg/kg, ip after 4 days; assay type: organism-based; design: dose 8 mg/kg, route intraperitoneal; conditions: in vivo
[19] = Toxicity in Mus musculus ddY (mouse) assessed as mortality at 4 mg/kg, ip after 6 days; assay type: organism-based; design: dose 4 mg/kg, route intraperitoneal; conditions: in vivo
[20] = Toxicity in Mus musculus ddY (mouse) assessed as mortality at 6 mg/kg, ip after 6 days; assay type: organism-based; design: dose 6 mg/kg, route intraperitoneal; conditions: in vivo
[21] = Toxicity in Mus musculus ddY (mouse) assessed as mortality at 8 mg/kg, ip after 6 days; assay type: organism-based; design: dose 8 mg/kg, route intraperitoneal; conditions: in vivo
[22] = Toxicity in Mus musculus ddY (mouse) assessed as mortality at 6 mg/kg, ip after 5 days; assay type: organism-based; design: dose 6 mg/kg, route intraperitoneal; conditions: in vivo
[23] = Toxicity in Mus musculus ddY (mouse) assessed as mortality at 8 mg/kg, ip after 5 days; assay type: organism-based; design: dose 8 mg/kg, route intraperitoneal; conditions: in vivo
[24] = Toxicity in Mus musculus ddY (mouse) assessed as mortality at 7 mg/kg, ip after 5 days; assay type: organism-based; design: dose 7 mg/kg, route intraperitoneal; conditions: in vivo

With NN1C(=O)CSC1=S [AMINORHODANINE] as the molecule, how does the Activity [1] read?
Its Activity is 3.4%.

What about the mortality at 168 h [2] of the same molecule?
Its mortality at 168 h is 0%.

And the mortality at 168 h [3]?
Its mortality at 168 h is 80%.

And the Activity [4]?
The Activity was 11.85%.

What about the Activity (Allium tuberosum [5]) of the same molecule?
Its Activity is 7 mm.

And the Activity (Allium tuberosum [6])?
The Activity was 1.4 mm.

And the Activity (Echinochloa esculenta)?
The Activity was 3.1 mm.

What about the Root length [7] of the same molecule?
Its Root length is 26.8 mm.

And the Activity [8]?
The Activity was 14.1 mm.

What about the Activity (Lactuca sativa [9]) of the same molecule?
The Activity was 6.1 mm.

And the Activity (Lactuca sativa [10])?
The Activity was 3.2 mm.

And the Activity (Daucus carota)?
Its Activity is 10.8 mm.

And the Activity (Sesamum indicum)?
Its Activity is 6.8 mm.

And the mortality at 72 h [11]?
The mortality at 72 h was 60%.

What about the mortality at 48 h [12] of the same molecule?
The mortality at 48 h was 0%.

What about the mortality at 48 h [13] of the same molecule?
Its mortality at 48 h is 20%.

What about the mortality at 24 h [14] of the same molecule?
The mortality at 24 h was 20%.

What about the mortality at 24 h [15] of the same molecule?
Its mortality at 24 h is 100%.

And the Activity [16]?
The Activity was 8.05%.

What about the mortality at 96 h [17] of the same molecule?
Its mortality at 96 h is 20%.

What about the mortality at 96 h [18] of the same molecule?
The mortality at 96 h was 100%.

What about the mortality at 144 h [19] of the same molecule?
The mortality at 144 h was 20%.

What about the mortality at 144 h [20] of the same molecule?
The mortality at 144 h was 60%.

And the mortality at 144 h [21]?
The mortality at 144 h was 100%.

And the mortality at 120 h [22]?
Its mortality at 120 h is 60%.

What about the mortality at 120 h [23] of the same molecule?
Its mortality at 120 h is 100%.

And the mortality at 120 h [24]?
Its mortality at 120 h is 80%.
